The nature of data set [1]: cells. Format: functional, cell-based. Particulars: Homo sapiens, IR-K562.
The test system of data set [2] is K562. The data set is described as follows: cells. Format: functional, cell-based. As to conditions: Homo sapiens.
The target of data set [3] is T1, Histone deacetylase 8 (Homo sapiens, UniProt Q9BY41).
T1 sequence (Q9BY41 whole entry): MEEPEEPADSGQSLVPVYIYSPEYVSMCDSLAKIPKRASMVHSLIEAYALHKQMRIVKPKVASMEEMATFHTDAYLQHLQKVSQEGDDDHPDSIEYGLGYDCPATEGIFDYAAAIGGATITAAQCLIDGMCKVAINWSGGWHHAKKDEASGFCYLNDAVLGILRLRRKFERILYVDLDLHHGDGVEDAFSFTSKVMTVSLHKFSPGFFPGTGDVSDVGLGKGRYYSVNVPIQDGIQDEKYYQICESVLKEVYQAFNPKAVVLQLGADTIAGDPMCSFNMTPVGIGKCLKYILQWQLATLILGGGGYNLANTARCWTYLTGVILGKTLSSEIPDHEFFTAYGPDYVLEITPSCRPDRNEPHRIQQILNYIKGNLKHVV
The data set is described as follows: Inhibition of HDAC8 (unknown origin) using RHK(Ac)K(Ac) fluorogenic acetylated peptide substrate by fluorometric assay.

For data set [4], the target named is T2, Protein deacetylase HDAC6 (Homo sapiens, UniProt Q9UBN7).
T2 sequence (Q9UBN7 whole entry): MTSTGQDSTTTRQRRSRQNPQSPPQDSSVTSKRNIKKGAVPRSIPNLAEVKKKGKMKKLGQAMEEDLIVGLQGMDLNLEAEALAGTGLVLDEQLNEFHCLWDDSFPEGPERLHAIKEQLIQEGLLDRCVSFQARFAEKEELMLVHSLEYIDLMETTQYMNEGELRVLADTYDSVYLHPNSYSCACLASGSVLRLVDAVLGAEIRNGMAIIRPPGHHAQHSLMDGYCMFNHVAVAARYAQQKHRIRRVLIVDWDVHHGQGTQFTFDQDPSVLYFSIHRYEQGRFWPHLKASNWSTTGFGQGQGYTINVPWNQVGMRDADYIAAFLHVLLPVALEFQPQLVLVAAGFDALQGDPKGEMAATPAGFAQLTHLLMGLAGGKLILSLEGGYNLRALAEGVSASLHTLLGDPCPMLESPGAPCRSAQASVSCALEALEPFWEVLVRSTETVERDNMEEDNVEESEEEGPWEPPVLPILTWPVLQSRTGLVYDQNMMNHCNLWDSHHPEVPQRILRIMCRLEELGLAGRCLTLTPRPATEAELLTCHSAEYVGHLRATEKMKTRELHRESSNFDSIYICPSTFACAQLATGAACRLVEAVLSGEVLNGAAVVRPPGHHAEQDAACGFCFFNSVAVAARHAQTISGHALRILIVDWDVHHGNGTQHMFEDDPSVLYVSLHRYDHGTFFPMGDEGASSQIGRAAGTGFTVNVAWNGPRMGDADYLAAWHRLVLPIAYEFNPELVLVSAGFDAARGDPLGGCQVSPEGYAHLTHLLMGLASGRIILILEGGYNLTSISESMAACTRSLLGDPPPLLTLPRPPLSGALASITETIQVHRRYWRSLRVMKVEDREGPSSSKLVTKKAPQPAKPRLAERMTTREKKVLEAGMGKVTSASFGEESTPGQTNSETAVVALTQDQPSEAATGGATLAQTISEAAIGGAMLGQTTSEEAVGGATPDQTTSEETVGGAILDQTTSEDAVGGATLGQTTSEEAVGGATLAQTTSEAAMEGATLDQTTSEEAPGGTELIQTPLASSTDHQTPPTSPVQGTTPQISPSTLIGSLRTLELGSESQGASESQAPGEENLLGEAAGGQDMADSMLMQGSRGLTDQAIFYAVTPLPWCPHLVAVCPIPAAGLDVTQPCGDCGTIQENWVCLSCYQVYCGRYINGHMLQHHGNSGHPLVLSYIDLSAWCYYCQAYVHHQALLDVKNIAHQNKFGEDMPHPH
The data set is described as follows: Inhibition of HDAC6 (unknown origin) using RHKK(Ac) fluorogenic acetylated peptide substrate by fluorometric assay.

For data set [5], the target named is Histone deacetylase 2 (Homo sapiens, UniProt Q92769).
Data set [6] deals with Histone deacetylase 5 (Homo sapiens, UniProt Q9UQL6). The data set is described as follows: Inhibition of HDAC5 (unknown origin) using Boc-Lys(trifluoroacetyl)-AMC fluorogenic acetylated peptide substrate by fluorometric assay.
Data set [7] has as its system THP-1. The data set is described as follows: cells. Format: functional, cell-based. As to conditions: Homo sapiens.
In data set [8] the target is Histone deacetylase 1 (Homo sapiens, UniProt Q13547). The data set is described as follows: Inhibition of HDAC1 (unknown origin) using RHKK(Ac) fluorogenic acetylated peptide substrate by fluorometric assay.
Data set [9] concerns the target Histone deacetylase 4 (Homo sapiens, UniProt P56524). The data set is described as follows: Inhibition of HDAC4 (unknown origin) using Boc-Lys(trifluoroacetyl)-AMC fluorogenic acetylated peptide substrate by fluorometric assay.
Data set [10] deals with Histone deacetylase 9 (Homo sapiens, UniProt Q9UKV0). The data set is described as follows: Inhibition of HDAC9 (unknown origin) using Boc-Lys(trifluoroacetyl)-AMC fluorogenic acetylated peptide substrate by fluorometric assay.
Data set [11] relates to U-937. The data set is described as follows: cells. Format: functional, cell-based. As to conditions: Homo sapiens.
Data set [12] is described as follows: Cytotoxicity against HEK293 cells assessed as reduction in cell viability. Format: cell-based. Particulars: human.
Data set [13] is described as follows: in vitro. Particulars: human, HEK293 cells (CC50) versus THP1 cells (IC50).
Data set [14] can be described thus: in vitro. As to conditions: human.
The nature of data set [15]: in vitro. Particulars: human, HEK293 cells (CC50) versus U937 cells (IC50).
Data set [16] can be described thus: in vitro. Particulars: human, HEK293 cells (CC50) versus K562 cells (IC50).
The nature of data set [17]: Cytotoxicity against imatinib resistant human IR-K562 cells assessed as cell viability at 250 nM incubated for 8 days (reference value: 89.4%). Format: functional. As to conditions: IR-K562, 192 h, read-out: Activity.
The nature of data set [18]: Cytotoxicity against imatinib resistant human IR-K562 cells assessed as cell viability at 250 nM incubated for 5 days (reference value: 86.7%). Format: functional. As to conditions: IR-K562, 120 h, read-out: Activity.
Data set [19] in a line: Cytotoxicity against imatinib resistant human IR-K562 cells assessed as cell viability at 250 nM incubated for 1 day (reference value: 73.9%). Format: functional. Particulars: IR-K562, 24 h, read-out: Activity.
Data set [20] in a line: Cytotoxicity against imatinib resistant human IR-K562 cells assessed as cell viability at 250 nM incubated for 3 days (reference value: 79.5%). Particulars: IR-K562, 72 h, read-out: Activity. Format: functional.

Where only a bound is given, the exact number is not on record here.

As a reminder, the IC50 is the point on the concentration scale where inhibition reaches its midpoint. As a reminder, the CC50 is the concentration at which the toxic effect on the cells reaches its halfway point.

Sequence of Histone deacetylase 2 (Q92769 whole entry): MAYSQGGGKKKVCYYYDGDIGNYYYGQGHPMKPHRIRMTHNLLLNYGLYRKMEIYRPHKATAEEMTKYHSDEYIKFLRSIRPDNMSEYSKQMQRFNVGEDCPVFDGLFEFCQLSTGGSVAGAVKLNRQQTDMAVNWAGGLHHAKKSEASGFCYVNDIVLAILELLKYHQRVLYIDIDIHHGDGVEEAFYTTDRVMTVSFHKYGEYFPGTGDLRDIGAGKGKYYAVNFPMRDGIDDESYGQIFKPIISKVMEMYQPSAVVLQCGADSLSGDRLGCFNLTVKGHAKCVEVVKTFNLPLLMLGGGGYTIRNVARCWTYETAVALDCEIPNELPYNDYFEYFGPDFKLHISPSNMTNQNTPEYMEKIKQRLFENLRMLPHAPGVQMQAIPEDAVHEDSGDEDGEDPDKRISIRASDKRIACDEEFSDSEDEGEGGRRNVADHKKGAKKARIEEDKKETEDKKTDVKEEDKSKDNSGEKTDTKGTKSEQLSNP
Sequence of Histone deacetylase 4 (P56524 whole entry): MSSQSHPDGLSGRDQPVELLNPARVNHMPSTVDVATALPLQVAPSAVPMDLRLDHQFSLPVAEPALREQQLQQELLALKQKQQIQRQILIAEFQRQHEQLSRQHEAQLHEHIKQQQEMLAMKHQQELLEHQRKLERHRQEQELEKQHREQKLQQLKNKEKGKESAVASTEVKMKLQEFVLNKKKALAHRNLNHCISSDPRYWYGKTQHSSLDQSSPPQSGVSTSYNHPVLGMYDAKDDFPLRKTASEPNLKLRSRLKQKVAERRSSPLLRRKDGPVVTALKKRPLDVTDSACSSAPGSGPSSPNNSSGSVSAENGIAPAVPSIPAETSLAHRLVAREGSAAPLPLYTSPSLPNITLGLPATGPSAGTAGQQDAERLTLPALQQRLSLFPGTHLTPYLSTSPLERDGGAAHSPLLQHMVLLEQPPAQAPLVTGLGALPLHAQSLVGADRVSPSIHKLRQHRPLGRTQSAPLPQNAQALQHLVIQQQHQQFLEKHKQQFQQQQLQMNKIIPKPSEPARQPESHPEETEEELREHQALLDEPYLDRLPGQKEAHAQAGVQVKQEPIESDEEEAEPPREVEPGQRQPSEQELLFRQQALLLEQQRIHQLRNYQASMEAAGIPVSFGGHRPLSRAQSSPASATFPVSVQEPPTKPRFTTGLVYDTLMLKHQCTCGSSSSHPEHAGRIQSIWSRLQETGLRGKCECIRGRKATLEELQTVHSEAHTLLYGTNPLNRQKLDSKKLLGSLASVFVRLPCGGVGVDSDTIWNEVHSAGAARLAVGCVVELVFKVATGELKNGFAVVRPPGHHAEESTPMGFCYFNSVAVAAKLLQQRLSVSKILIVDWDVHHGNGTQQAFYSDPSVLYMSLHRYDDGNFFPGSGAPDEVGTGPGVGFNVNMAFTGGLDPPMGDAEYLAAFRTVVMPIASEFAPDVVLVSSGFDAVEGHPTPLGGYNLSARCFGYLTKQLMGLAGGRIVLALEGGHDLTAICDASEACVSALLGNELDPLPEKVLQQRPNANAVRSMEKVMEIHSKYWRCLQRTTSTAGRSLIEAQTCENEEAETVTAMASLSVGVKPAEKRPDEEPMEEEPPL
Sequence of Histone deacetylase 5 (Q9UQL6 whole entry): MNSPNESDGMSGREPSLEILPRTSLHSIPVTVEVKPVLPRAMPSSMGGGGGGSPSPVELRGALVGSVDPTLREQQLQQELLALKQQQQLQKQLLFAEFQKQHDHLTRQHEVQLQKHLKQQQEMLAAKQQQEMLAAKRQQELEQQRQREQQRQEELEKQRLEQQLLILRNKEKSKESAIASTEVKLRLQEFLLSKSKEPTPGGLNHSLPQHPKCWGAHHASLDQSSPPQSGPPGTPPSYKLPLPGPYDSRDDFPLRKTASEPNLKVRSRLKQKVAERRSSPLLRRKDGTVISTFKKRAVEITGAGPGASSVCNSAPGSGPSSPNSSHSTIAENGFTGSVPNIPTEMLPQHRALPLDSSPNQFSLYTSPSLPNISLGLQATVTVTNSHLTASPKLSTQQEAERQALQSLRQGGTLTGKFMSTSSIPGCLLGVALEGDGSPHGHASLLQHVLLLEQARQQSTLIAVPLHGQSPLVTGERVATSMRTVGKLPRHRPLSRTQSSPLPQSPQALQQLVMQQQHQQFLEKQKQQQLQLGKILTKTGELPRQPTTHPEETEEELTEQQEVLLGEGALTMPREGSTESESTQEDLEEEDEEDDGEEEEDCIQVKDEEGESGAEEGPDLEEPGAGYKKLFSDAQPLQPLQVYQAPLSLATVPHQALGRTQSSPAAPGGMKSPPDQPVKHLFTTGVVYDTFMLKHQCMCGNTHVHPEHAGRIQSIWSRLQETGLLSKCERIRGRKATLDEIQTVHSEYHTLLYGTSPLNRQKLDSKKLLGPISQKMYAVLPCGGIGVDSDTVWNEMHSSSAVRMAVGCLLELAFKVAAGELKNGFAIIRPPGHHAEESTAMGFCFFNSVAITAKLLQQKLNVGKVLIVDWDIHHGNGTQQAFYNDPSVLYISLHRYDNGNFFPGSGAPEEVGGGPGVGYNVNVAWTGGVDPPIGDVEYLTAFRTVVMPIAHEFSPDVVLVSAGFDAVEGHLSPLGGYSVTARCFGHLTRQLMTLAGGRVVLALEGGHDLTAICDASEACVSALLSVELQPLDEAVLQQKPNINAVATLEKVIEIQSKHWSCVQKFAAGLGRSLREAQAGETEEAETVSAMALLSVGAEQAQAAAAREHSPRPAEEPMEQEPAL
Sequence of Histone deacetylase 9 (Q9UKV0 whole entry): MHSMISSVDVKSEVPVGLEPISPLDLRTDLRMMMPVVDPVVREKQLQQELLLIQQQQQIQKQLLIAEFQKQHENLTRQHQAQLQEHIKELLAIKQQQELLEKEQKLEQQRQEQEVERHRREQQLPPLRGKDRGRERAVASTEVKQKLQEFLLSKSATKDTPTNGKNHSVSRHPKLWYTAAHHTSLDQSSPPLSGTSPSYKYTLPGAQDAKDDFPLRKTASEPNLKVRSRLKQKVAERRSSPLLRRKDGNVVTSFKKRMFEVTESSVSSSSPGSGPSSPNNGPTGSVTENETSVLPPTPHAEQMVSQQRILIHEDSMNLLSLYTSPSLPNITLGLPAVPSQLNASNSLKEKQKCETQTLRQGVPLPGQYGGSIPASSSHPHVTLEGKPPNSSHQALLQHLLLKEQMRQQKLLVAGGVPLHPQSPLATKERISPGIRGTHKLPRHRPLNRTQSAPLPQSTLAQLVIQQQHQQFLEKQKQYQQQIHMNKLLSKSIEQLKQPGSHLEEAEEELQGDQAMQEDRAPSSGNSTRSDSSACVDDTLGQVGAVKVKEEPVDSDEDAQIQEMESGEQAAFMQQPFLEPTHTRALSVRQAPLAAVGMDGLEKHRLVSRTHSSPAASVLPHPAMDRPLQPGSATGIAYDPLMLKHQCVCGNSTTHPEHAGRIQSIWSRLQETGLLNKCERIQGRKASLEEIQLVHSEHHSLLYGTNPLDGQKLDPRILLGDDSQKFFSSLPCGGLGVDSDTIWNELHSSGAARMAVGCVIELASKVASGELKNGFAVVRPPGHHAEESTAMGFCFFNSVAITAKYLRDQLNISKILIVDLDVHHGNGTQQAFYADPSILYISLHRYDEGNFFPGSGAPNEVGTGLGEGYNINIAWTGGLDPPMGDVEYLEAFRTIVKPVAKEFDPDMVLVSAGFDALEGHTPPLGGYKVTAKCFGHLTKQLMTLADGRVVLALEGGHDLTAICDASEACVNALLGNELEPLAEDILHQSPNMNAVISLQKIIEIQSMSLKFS
Sequence of Histone deacetylase 1 (Q13547 whole entry): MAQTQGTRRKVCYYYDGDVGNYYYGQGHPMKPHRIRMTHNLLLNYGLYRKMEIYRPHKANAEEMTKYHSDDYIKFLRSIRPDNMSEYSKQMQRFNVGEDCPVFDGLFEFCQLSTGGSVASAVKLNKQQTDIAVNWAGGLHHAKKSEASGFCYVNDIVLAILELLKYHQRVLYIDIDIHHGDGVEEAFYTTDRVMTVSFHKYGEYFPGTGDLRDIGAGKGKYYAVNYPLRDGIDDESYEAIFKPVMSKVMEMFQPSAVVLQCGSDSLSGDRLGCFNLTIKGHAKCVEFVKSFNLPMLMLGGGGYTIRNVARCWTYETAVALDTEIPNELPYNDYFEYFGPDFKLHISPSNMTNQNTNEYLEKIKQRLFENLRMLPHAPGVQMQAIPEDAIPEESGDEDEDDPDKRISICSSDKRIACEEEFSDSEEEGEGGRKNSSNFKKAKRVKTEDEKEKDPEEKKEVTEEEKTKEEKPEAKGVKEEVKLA

As to `C[C@@H](NC(=O)c1cccc(=S)n1O)C(=O)O`, the IC50 in data set [1] came out at 18 µM; in data set [2], 3.7 µM; in data set [3] it was 0.98 µM; in data set [4], 4.2 µM; in [5], 400 µM; in data set [6], 37 µM. The IC50 is 2.2 µM in [7]; 270 µM in data set [8]; 100 µM in data set [9]; 58 µM in data set [10]; 25 µM in data set [11].
For `O=C(N[C@@H](C(=O)O)c1ccccc1)c1cccc(=S)n1O`, the IC50 in data set [1] was found to be 24 µM; in [2], 8.7 µM; in data set [3], 1.2 µM; in data set [4], 8.8 µM; in data set [5] it was 95 µM; in data set [6] it was 27 µM. Moreover, the 50% inhibitory concentration (IC50) in data set [7] turned out to be 6.4 µM; in data set [8] it was 93 µM; in [9], 64 µM; in [10], 34 µM; in data set [11] it was 57 µM. Besides, the CC50 in data set [12] was 76 µM.
For `O=C(O)c1cccc(=S)n1O`, the IC50 in data set [1] amounted to 52 µM; in data set [2], 18 µM; in data set [3], 3.3 µM; in [4] it was 0.15 µM; in data set [5] it was 710 µM; in data set [6], 35 µM. Also, the IC50 in [7] was found to be 25 µM; in data set [8], 43 µM; in data set [9], 71 µM; in data set [10], 47 µM; in data set [11], 75 µM. Also, the CC50 in [12] was found to be 97 µM.
As for `Cc1nc(Nc2ncc(C(=O)Nc3c(C)cccc3Cl)s2)cc(N2CCN(CCO)CC2)n1` [DASATINIB], the IC50 in [1] stood at 1.9 µM; in [2] it was 0.08 µM; in data set [7], 6 µM. Also, the selectivity ratio in data set [13] is 2.6; in data set [14], 8.4; in data set [15], under 0.1; in data set [16], 200. The half-maximal cytotoxic concentration (CC50) in [12] is 16 µM.
Regarding `Cc1ccc(NC(=O)c2ccc(CN3CCN(C)CC3)cc2)cc1Nc1nccc(-c2cccnc2)n1` [IMATINIB], the viability at […] was 71.1% in data set [17], 65.1% in [18], 47% in [19] and 58.7% in [20]. The IC50 in [1] was determined as 1.1 µM; in data set [2] it was 0.06 µM; in [7], 25 µM; in data set [11], 19 µM. Also, the selectivity ratio in [13] stood at 0.34; in data set [14], 7.6; in data set [15], 0.44; in data set [16], 140. Moreover, the CC50 in data set [12] stood at 8.4 µM.
For `O=C(CCCCCCC(=O)Nc1ccccc1)NO` [VORINOSTAT], in [12], the CC50 came out at 100 µM.

For the origin of these results see ChEMBL document CHEMBL3616411, “Discovery of 1-hydroxypyridine-2-thiones as selective histone deacetylase inhibitors and their potential application for treating leukemia” (Bioorg Med Chem Lett, 2015).
